Results on four molecules are retold here after patent US5834461A, “Tricyclic benzazepine vasopressin antagonists” (American Cyanamid Company, priority 1997, dated 1998).

Each structure is given as a SMILES string.

For one experiment, the system named is vasopressin V2. Kind of experiment: Vasopressin V2 Antagonist Activity in Conscious Hydrated Rats (diuretic effect). The experiment is classed as in vivo, normal Sprague-Dawley rats. The conditions noted are these: AVP 0.4 μg/kg i.p. The method, boiled down:
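Conscious rats were dosed orally at 0.1–100 mg/kg, and AVP 0.4 μg/kg i.p. in peanut oil followed 1 h later. Urine volume, osmolality and Na/K/Cl were compared against AVP-treated controls, with non-AVP rats as water-loading controls.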

In experiment [1] the target is T1, oxytocin receptors (rat uterus membranes) (Rattus norvegicus, UniProt P70536).
T1 construct: The resulting pellet containing the oxytocin receptors is resuspended; from tissue; host or cells: uterus membranes of DES-treated female Sprague-Dawley rats
T1 sequence (P70536 1-388): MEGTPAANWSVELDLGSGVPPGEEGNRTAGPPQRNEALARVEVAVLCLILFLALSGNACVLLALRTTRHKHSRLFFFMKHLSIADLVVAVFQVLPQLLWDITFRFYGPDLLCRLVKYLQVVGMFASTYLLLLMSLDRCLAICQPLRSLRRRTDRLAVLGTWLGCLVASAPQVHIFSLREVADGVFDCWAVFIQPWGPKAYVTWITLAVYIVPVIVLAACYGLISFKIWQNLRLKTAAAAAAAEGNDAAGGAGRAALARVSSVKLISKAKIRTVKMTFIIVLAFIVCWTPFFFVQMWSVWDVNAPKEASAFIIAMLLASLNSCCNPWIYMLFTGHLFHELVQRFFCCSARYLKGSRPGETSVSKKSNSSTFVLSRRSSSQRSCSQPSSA
Nature of the experiment: Oxytocin Receptor Binding. Set-up: species or system female Sprague-Dawley rats. In outline: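 Uterine membranes from DES-primed female Sprague-Dawley rats (0.3 mg/kg i.m., 18 h) were incubated with 1.0 nM [3H]oxytocin in 50 mM Tris.HCl pH 7.4, 5 mM MgCl2 plus protease inhibitors, 60 min at 22 °C. Bound ligand was separated by filtration; nonspecific binding was defined with 1.0 uM oxytocin, and IC50 was taken from displacement curves.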

In a further experiment the test system is vasopressin V1. Nature of the experiment: Vasopressin V1 Antagonist Activity in Conscious Rats (vasopressin vasopressor response). The format is in vivo, rat (spontaneously hypertensive rats). In outline:
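Conscious rats had the ventral caudal tail artery cannulated into the lower abdominal aorta under local procaine anesthesia, plus a caudal vein cannula for intravenous dosing. Pulsatile blood pressure was recorded via a Statham P23Db transducer. Vasopressor responses to vasopressin injections were measured before and after compound dosing, with percent antagonism calculated relative to the pre-drug response taken as 100%.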

By inhibition is commonly meant how much of the control response was suppressed. One may read the IC50 as the concentration at which inhibition is half-maximal. Low readings indicate greater potency, high ones weaker potency.

As to `Cc1ccccc1C(=O)Nc1ccc(C(=O)N2CCc3cn(C)nc3-c3ccccc32)cc1` [Example 379, N-[4-[(4,5-Dihydro-2-methylpyrazolo[4,3-d][1]-benzazepin-6(2H)-yl)carbonyl]phenyl]-2-methylbenzamide], in the experiment with vasopressin V2 (20 mg/kg orally), the Osmolality is 483 mOsm/kg and the “Urine Volume” value worked out at 7 ml/4 hrs. In experiment [1], this molecule came in with an inhibition at 10 µM of 96%. The IC50 in experiment [1] (first part of Table V) amounted to 810 nM. Further, in the experiment with vasopressin V1 (10 mg/kg i.v.), the “MAX % Inhibition” value amounted to 75% and the “Time of max % inhibition” value is 300 min.
Take `Cc1ncc2c(n1)-c1ccccc1N(C(=O)c1ccc(NC(=O)c3ccccc3C)cc1)CC2` [Example 416, N-[4-[(6,7-Dihydro-2-methyl-5H-pyrimido[5,4-d][1]-benzazepin-7-yl)carbonyl]phenyl]-2-methylbenzamide]: in the experiment with vasopressin V2 (10 mg/kg orally), the Osmolality was determined as 1156 mOsm/kg and the “Urine Volume” value came to 4.3 ml/4 hrs. Further, the inhibition at 10 µM in experiment [1] is 19%. Also, in the experiment on vasopressin V1 (30 mg/kg i.v.), the “MAX % Inhibition” value is reported as 44% and the “Time of max % inhibition” value amounted to 90 min.
Take `O=C(Nc1ccc(C(=O)N2Cc3ccccc3Sc3ccccc32)cc1)c1ccccc1Cl` [Example 448, N-[4-[(Dibenz[b,f][1,4]thiazepin-10(11H)yl)-carbonyl]phenyl]-2-chlorobenzamide]: in the experiment with vasopressin V2 (30 mg/kg orally), the Osmolality is recorded as 1084 mOsm/kg and the “Urine Volume” value is on record as 4.8 ml/4 hrs. In experiment [1], this molecule came in with an inhibition at 10 µM of 39%. In addition, in the experiment on vasopressin V1 (30 mg/kg i.v.), the “MAX % Inhibition” value came to 60% and the “Time of max % inhibition” value worked out at 90 min.
With `Cc1nc2c(s1)CCN(C(=O)c1ccc(NC(=O)c3ccc(Cl)cc3Cl)cc1)c1ccccc1-2` [Example 455, N-[4-(4,5-Dihydro-2-methyl-6H-thiazolo[5,4-d][1]-benzazepin-6-yl)carbonyl1phenyl]-2,4-dichlorobenzamide], in the experiment with vasopressin V2 (10 mg/kg orally), the Osmolality was 420 mOsm/kg and the “Urine Volume” value is listed as 13.5 ml/4 hrs. Also, at 10 µM the inhibition in experiment [1] was 88%. The same molecule registered an IC50 in experiment [1] (second part of Table V) of 1100 nM. Also, in the experiment with vasopressin V1 (30 mg/kg i.v.), the “MAX % Inhibition” value stood at 46% and the “Time of max % inhibition” value is 120 min.
